Laboratory results from the supplement of paper PMC8671470.

Key:
Assay in all cases: cell viability (% survival relative to DMSO control, bortezomib = 0%); higher = less cytotoxic
Settings in all cases: 72 h
ML-2 = tested on: ML-2
Procedure, shortened: (§1)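 Fifteen myeloid leukaemia cell lines (10 AML, 5 CML) were seeded at a density titrated to the linear growth range. They went into 384-well plates with compounds pre-printed at 1, 10, 100, 1000 or 10000 nM in duplicate. After 72 h at 37 °C with 5% CO2, viability was read by CellTiter-Glo luminescence. Values are percent survival, with vehicle set to 100% and a 10 µM positive control to 0%, averaged over the duplicates.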

MOLM-13 = tested on: MOLM-13
Procedure, shortened: as §1

NOMO-1 = tested on: NOMO-1
Procedure, shortened: as §1

THP-1 = tested on: THP-1
Procedure, shortened: as §1

Compound | cell viability (ML-2; 1 nM) | cell viability (ML-2; 10 nM) | cell viability (ML-2; 100 nM) | cell viability (ML-2; 1000 nM) | cell viability (ML-2; 10000 nM) | cell viability (MOLM-13; 1 nM) | cell viability (MOLM-13; 10 nM) | cell viability (MOLM-13; 100 nM) | cell viability (MOLM-13; 1000 nM) | cell viability (MOLM-13; 10000 nM) | cell viability (NOMO-1; 1 nM) | cell viability (NOMO-1; 10 nM) | cell viability (NOMO-1; 100 nM) | cell viability (NOMO-1; 1000 nM) | cell viability (NOMO-1; 10000 nM) | cell viability (THP-1; 1 nM) | cell viability (THP-1; 10 nM) | cell viability (THP-1; 100 nM) | cell viability (THP-1; 1000 nM) | cell viability (THP-1; 10000 nM)
CCOC(=O)[C@H]1O[C@@H]1C(=O)N[C@@H](CC(C)C)C(=O)NCCC(C)C [Aloxistatin] | 99% | 86.2% | 87.1% | 100% | 88.3% | 102% | 109% | 116% | 96.1% | 62.8% | 96.2% | 109% | 100% | 96.2% | 24.4% | 104% | 110% | 96.9% | 95.2% | 95.7%
N[C@](CCCCB(O)O)(CCN1CCCCC1)C(=O)O [Arginase inhibitor 1] | 112% | 93.9% | 93.1% | 93.4% | 99.7% | 106% | 99.8% | 117% | 74.4% | 72% | 91.3% | 94.5% | 103% | 96.4% | 93.9% | 105% | 88.6% | 101% | 99% | 102%
Cc1noc2c1-c1ccccc1C(c1ccc(Cl)cc1)=N[C@H]2CC(N)=O [CPI-0610] | 108% | 91.2% | 92.5% | 62.9% | 33.9% | 74.3% | 88.2% | 73.5% | 5.96% | 3.86% | 102% | 96.3% | 79% | 33.6% | 11.7% | 103% | 95.9% | 88.6% | 51.1% | 40.2%
Nc1ccn([C@@H]2O[C@H](CO)[C@@H](O)[C@@H]2O)c(=O)n1 [Cytarabine] | 106% | 98.5% | 32% | 0.0645% | 1.39% | 112% | 86.4% | 45.7% | 4.2% | 0.262% | 107% | 105% | 89.6% | 78.1% | 9.44% | 103% | 104% | 89.9% | 91.7% | 23.8%
CCOc1ccc(Cc2cc([C@@H]3O[C@H](CO)[C@@H](O)[C@H](O)[C@H]3O)ccc2Cl)cc1 [Dapagliflozin] | 84.8% | 111% | 85.1% | 108% | 105% | 92.8% | 111% | 91.1% | 103% | 121% | 95.2% | 101% | 88.1% | 104% | 97% | 88.4% | 100% | 86.4% | 101% | 90.1%
CCN(CC)CCN(Cc1ccc(-c2ccc(C(F)(F)F)cc2)cc1)C(=O)Cn1c(SCc2ccc(F)cc2)nc(=O)c2c1CCC2 [Darapladib] | 102% | 98.2% | 88.9% | 88.8% | -0.43% | 123% | 94.6% | 88.2% | 83.8% | -0.315% | 98.6% | 98.8% | 97% | 93.8% | -0.418% | 107% | 98.8% | 100% | 96.3% | -0.44%
O=C(O)C(Cl)Cl [Dichloroacetate] | 91.7% | 102% | 103% | 95.8% | 103% | 95.9% | 99.5% | 97.7% | 89.4% | 102% | 101% | 98.9% | 102% | 102% | 103% | 100% | 98% | 103% | 95.8% | 102%
O=C1Oc2ccccc2C(=O)C1CC1C(=O)Oc2ccccc2C1=O (stereo not given) [Dicumarol] | 93.8% | 91.9% | 99.2% | 104% | 95.4% | 105% | 109% | 107% | 120% | 97.1% | 99.4% | 101% | 98.8% | 109% | 96.3% | 100% | 102% | 96.3% | 103% | 94.2%
CC12CCC(O)CC1CCC1C2CCC2(C)C(C3=CC(=O)OC3)CCC12O (stereo not given) [Digitoxigenin] | 97.3% | 97.5% | 107% | 0.616% | -1.47% | 68.7% | 116% | 54.5% | 0.802% | -1.32% | 110% | 96% | 109% | 11.3% | -1.17% | 108% | 104% | 77% | 18.9% | -0.987%
C[C@H]1O[C@@H](O[C@H]2[C@@H](O)C[C@H](O[C@H]3[C@@H](O)C[C@H](O[C@H]4CC[C@@]5(C)[C@H](CC[C@@H]6[C@@H]5C[C@@H](O)[C@]5(C)[C@@H](C7=CC(=O)OC7)CC[C@]65O)C4)O[C@@H]3C)O[C@@H]2C)C[C@H](O)[C@@H]1O [Digoxin] | 99% | 109% | 5.07% | -0.2% | -0.154% | 105% | 105% | 0.137% | -0.695% | 0.435% | 97.9% | 105% | 60.3% | -0.211% | -0.0253% | 85.8% | 95.6% | 32.6% | 0.766% | -0.172%
O=c1c2ccccc2[se]n1-c1ccccc1 [Ebselen] | 95.6% | 96.7% | 96.1% | 96.9% | 82% | 104% | 97.9% | 108% | 92.5% | 115% | 93.7% | 103% | 97.3% | 94.3% | 102% | 94.9% | 95.1% | 93% | 98.7% | 81.8%
Clc1ccc(COC(Cn2ccnc2)c2ccc(Cl)cc2Cl)cc1 (stereo not given) [Econazole] | 110% | 88.3% | 112% | 89.8% | 58.1% | 79.3% | 140% | 84.8% | 58.7% | 29.2% | 105% | 84.8% | 98.2% | 93.2% | 89.1% | 102% | 94.9% | 95.7% | 87.9% | 62%
C#Cc1cnc(O)nc1O [Eniluracil] | 102% | 120% | 110% | 97.3% | 107% | 75.5% | 108% | 114% | 91.4% | 104% | 96.4% | 103% | 101% | 104% | 109% | 97.4% | 102% | 109% | 110% | 102%
